Source: ChEMBL document CHEMBL5053536, “Discovery of Quinazoline-2,4(1H,3H)-dione Derivatives Containing 3-Substituted Piperizines as Potent PARP-1/2 Inhibitors─Design, Synthesis, In Vivo Antitumor Activity, and X-ray Crystal Structure Analysis” (J Med Chem, 2021)
pIC50, pKd: −log10 of the molar value. Activity calls are given as the source filed them. No cut-off for these calls is given here.

Columns and labels:
[1] = MRT(0 to t) in Beagle dog at 0.4 mg/kg, iv measured upto 24 hrs by LC-MS/MS analysis; format: ADME, organism-based, Canis lupus familiaris; conditions: in vivo
[2] = Cmax in Sprague-Dawley rat at 20 mg/kg, po measured upto 24 hrs by LC-MS/MS analysis; format: ADME, organism-based; design: time < 24 hrs, dose 20 mg/kg, route po; conditions: in vivo
[3] = target: T1, Poly [ADP-ribose] polymerase 2 (Homo sapiens, UniProt Q9UGN5); experiment: Inhibition of recombinant human PARP2 using NAD+ as substrate incubated for 1 hr by ELISA
[4] = system: U-251; experiment: Inhibition of PARP1/2-mediated DNA repair in human U-251 cells assessed as reduction in PAR formation at 1 to 10 uM after 24 hrs in absence of TMZ by Western blot analysis; format: cell-based; conditions: dose 1-10 µM
[5] = system: MX1; experiment: Antitumor activity against human MX1 cells xenografted in athymic nu/nu mouse assessed as tumor growth inhibition at 12.5 mg/kg, po administered once daily for 5 days and measured on day 17 in presence of 50 mg/kg TMZ; format: functional; conditions: MX1, 408 h, time 17 day, read-out: TGI
[6] = AUC(0 to infinity) in BALB/c mouse at 25 mg/kg, po measured upto 24 hrs by LC-MS/MS analysis; format: ADME, organism-based; design: time < 24 hrs, dose 25 mg/kg, route po; conditions: in vivo
[7] = Cmax in Beagle dog at 20 mg/kg, po measured upto 24 hrs by LC-MS/MS analysis; format: ADME, organism-based, Canis lupus familiaris; design: time < 24 hrs, dose 20 mg/kg, route po; conditions: in vivo
[8] = MRT(0 to infinity) in Sprague-Dawley rat at 20 mg/kg, po measured upto 24 hrs by LC-MS/MS analysis; format: ADME, organism-based; conditions: in vivo
[9] = Half life in Sprague-Dawley rat at 20 mg/kg, po measured upto 24 hrs by LC-MS/MS analysis; format: ADME, organism-based; conditions: in vivo
[10] = Drug concentration in Sprague-Dawley rat brain assessed as brain blood ratio measured upto 24 hrs by LC-MS/MS analysis; format: ADME, organism-based; conditions: read-out: BBR
[11] = system: T98G; experiment: Inhibition of PARP1/2-mediated DNA repair in human T98G cells assessed as increase in […] expression at 1 to 10 uM after 24 hrs in presence of TMZ by Western blot analysis; format: cell-based; conditions: dose 1-10 µM
[12] = MRT(0 to infinity) in BALB/c mouse at 25 mg/kg, po measured upto 24 hrs by LC-MS/MS analysis; format: ADME, organism-based; conditions: in vivo
[13] = system: Mus musculus; experiment: Toxicity in BALB/c mouse xenografted with human U-87MG cells assessed as effect on body weight at 25 mg/kg, po administered once daily for 5 days and measured on day 8 in presence of 30 mg/kg TMZ (reference value: 18.8 +/- 0.7 g); format: organism-based; conditions: in vivo, 192 h, time 8 day
[14] = Half life in Beagle dog at 20 mg/kg, po measured upto 24 hrs by LC-MS/MS analysis; format: ADME, organism-based, Canis lupus familiaris; conditions: in vivo
[15] = system: A 172; experiment: Cytotoxicity against human A172 cells assessed as reduction in cell viability at 5 to 10 uM incubated for 72 hrs in presence of TMZ by MTT assay; format: functional, cell-based; conditions: dose 5-10 µM
[16] = Tmax in Beagle dog at 20 mg/kg, po measured upto 24 hrs by LC-MS/MS analysis; format: ADME, organism-based, Canis lupus familiaris; conditions: in vivo
[17] = Tmax in Sprague-Dawley rat at 20 mg/kg, po measured upto 24 hrs by LC-MS/MS analysis; format: ADME, organism-based; conditions: in vivo
[18] = system: U-87 MG; experiment: Antitumor activity against human U-87MG cells xenografted in BALB/c mouse assessed as reduction in tumor volume at 50 mg/kg, po administered once daily for 5 days and measured on day 8 in presence of 30 mg/kg TMZ by MRI scanner (reference value: 202 +/- 120.4 mm3); format: functional, U-87MG ATCC; conditions: time 8 day
[19] = Cmax in Beagle dog at 0.4 mg/kg, iv measured upto 24 hrs by LC-MS/MS analysis; format: ADME, organism-based, Canis lupus familiaris; design: time < 24 hrs, dose 0.4 mg/kg, route iv; conditions: in vivo
[20] = Cmax in BALB/c mouse at 25 mg/kg, po measured upto 24 hrs by LC-MS/MS analysis; format: ADME, organism-based; design: time < 24 hrs, dose 25 mg/kg, route po; conditions: in vivo
[21] = system: U-87 MG; experiment: Antitumor activity against human U-87MG cells xenografted in BALB/c mouse assessed as T/C ratio at 50 mg/kg, po administered once daily for 5 days and measured upto 32 days in presence of 30 mg/kg TMZ by MRI scanner; format: functional, U-87MG ATCC; conditions: time <= 32 day
[22] = organism: Homo sapiens; experiment: Selectivity index, ratio of IC50 for inhibition of recombinant human PARP2 to IC50 for inhibition of recombinant human PARP1
[23] = system: U-251; experiment: Cytotoxicity against human U251 cells assessed as reduction in cell viability at 5 to 10 uM incubated for 72 hrs in presence of TMZ by MTT assay; format: functional, cell-based; conditions: dose 5-10 µM
[24] = MRT(0 to infinity) in Beagle dog at 0.4 mg/kg, iv measured upto 24 hrs by LC-MS/MS analysis; format: ADME, organism-based, Canis lupus familiaris; conditions: in vivo
[25] = system: U-87 MG; experiment: Antitumor activity against human U-87MG cells xenografted in BALB/c mouse assessed as reduction in tumor volume at 25 mg/kg, po administered once daily for 5 days and measured on day 8 in presence of 30 mg/kg TMZ by MRI scanner (reference value: 202 +/- 120.4 mm3); format: functional, U-87MG ATCC; conditions: time 8 day
[26] = Half life in Beagle dog at 0.4 mg/kg, iv measured upto 24 hrs by LC-MS/MS analysis; format: ADME, organism-based, Canis lupus familiaris; conditions: in vivo
[27] = system: T98G; experiment: Inhibition of PARP1/2-mediated DNA repair in human T98G cells assessed as increase in […] expression at 1 to 10 uM after 24 hrs in absence of TMZ by Western blot analysis; format: cell-based; conditions: dose 1-10 µM
[28] = Tmax in BALB/c mouse at 25 mg/kg, po measured upto 24 hrs by LC-MS/MS analysis; format: ADME, organism-based; conditions: in vivo
[29] = target: Poly [ADP-ribose] polymerase 1 (Homo sapiens, UniProt P09874); experiment: Inhibition of recombinant human PARP1 using NAD+ as substrate incubated for 1 hr by ELISA
[30] = MRT(0 to t) in Sprague-Dawley rat at 20 mg/kg, po measured upto 24 hrs by LC-MS/MS analysis; format: ADME, organism-based; conditions: in vivo
[31] = AUC(0 to t) in Beagle dog at 0.4 mg/kg, iv measured upto 24 hrs by LC-MS/MS analysis; format: ADME, organism-based, Canis lupus familiaris; design: time < 24 hrs, dose 0.4 mg/kg, route iv; conditions: in vivo
[32] = target: T1, Poly [ADP-ribose] polymerase 2; experiment: Binding affinity to recombinant human PARP2 assessed as dissociation constant by SPR assay
[33] = system: MX1; experiment: Inhibition of PARP1/2 in human MX1 cells assessed as reduction in PAR formation at 1 to 10 uM after 24 hrs by Western blot analysis; format: cell-based; conditions: dose 1-10 µM
[34] = system: U-87 MG; experiment: Antitumor activity against human U-87MG cells xenografted in BALB/c mouse assessed as reduction in tumor volume at 50 mg/kg, po administered once daily for 5 days and measured on day 32 in presence of 30 mg/kg TMZ by MRI scanner; format: functional, U-87MG ATCC; conditions: time 32 day
[35] = AUC(0 to t) in Beagle dog at 20 mg/kg, po measured upto 24 hrs by LC-MS/MS analysis; format: ADME, organism-based, Canis lupus familiaris; design: time < 24 hrs, dose 20 mg/kg, route po; conditions: in vivo
[36] = system: U-87 MG; experiment: Antitumor activity against human U-87MG cells xenografted in BALB/c mouse assessed as tumor growth inhibition at 50 mg/kg, po administered once daily for 5 days and measured upto 32 days in presence of 30 mg/kg TMZ by MRI scanner; format: functional, U-87MG ATCC; conditions: 768 h, time <= 32 day, read-out: TGI

T1 sequence (Q9UGN5 whole entry): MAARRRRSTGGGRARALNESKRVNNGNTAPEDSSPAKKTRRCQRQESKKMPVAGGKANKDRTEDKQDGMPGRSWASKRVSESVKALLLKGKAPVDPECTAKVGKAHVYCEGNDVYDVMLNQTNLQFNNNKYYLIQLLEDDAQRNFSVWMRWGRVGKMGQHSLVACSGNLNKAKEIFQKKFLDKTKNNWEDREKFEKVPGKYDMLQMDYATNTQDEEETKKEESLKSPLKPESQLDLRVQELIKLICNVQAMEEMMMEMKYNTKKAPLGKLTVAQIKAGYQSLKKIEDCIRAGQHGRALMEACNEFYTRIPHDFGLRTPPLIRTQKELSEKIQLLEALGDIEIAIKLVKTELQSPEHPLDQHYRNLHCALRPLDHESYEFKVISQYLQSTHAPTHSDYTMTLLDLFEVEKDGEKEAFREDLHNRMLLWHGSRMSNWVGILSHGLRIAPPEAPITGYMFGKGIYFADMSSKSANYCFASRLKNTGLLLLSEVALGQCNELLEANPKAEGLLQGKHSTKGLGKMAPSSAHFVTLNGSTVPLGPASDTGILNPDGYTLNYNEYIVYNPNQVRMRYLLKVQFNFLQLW
Poly [ADP-ribose] polymerase 1, sequence (P09874 whole entry): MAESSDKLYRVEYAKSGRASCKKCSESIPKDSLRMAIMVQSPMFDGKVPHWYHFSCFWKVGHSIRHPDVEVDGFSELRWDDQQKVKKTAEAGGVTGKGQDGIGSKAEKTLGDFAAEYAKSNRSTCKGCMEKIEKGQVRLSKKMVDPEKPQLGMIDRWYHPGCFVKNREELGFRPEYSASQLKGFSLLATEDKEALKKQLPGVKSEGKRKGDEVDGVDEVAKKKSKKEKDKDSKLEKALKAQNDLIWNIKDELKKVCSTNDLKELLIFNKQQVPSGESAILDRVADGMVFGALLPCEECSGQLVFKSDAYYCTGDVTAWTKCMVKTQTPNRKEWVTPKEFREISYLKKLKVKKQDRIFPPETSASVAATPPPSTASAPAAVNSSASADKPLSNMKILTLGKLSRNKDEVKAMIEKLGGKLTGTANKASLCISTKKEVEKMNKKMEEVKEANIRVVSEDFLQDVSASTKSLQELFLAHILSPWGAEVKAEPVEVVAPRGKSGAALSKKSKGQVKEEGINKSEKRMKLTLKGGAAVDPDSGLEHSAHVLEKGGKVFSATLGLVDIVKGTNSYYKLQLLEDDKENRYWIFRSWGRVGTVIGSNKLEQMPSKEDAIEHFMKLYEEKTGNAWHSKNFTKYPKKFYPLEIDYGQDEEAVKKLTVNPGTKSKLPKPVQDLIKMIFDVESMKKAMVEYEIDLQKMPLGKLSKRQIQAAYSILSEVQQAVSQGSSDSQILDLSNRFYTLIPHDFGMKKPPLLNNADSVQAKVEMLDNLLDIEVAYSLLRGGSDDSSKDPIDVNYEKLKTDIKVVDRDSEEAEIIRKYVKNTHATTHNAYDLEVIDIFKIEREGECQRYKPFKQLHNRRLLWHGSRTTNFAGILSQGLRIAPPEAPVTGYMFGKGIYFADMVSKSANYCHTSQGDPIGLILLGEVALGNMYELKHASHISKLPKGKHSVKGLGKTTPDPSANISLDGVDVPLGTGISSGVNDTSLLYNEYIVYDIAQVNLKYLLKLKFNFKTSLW

SMILES: CC[C@@H]1CN(C(=O)c2cc(Cn3c(=O)[nH]c(=O)c4ccccc43)ccc2F)CCN1CC
- MRT last at 24 h [1]: 1.31 h
- Cmax [2]: 208 ng/mL
- pIC50 [3]: 7.64
- inhibition [4]: Active
- inhibition in vivo at 12.5 mg/kg [5]: 71.5%
- AUC(0-inf) [6]: 593 ng·h/mL
- Cmax [7]: 6440 ng/mL
- MRT inf [8]: 1.37 h
- half-life [9]: 0.8 h
- Kp at 24 h [10]: 0.1
- inhibition [11]: Active
- MRT inf [12]: 1.05 h
- Activity [13]: 18.2 g
- half-life [14]: 3.78 h
- Activity [15]: Active
- Tmax [16]: 0.5 h
- Tmax [17]: 4.98 min
- Activity [18]: 0 mm3
- Cmax [19]: 1250 ng/mL
- Cmax [20]: 399 ng/mL
- T/C [21]: 14.1%
- Ratio IC50 [22]: 45
- Activity [23]: Active
- MRT inf [24]: 1.43 h
- Activity [25]: 0 mm3
- half-life [26]: 1.37 h
- inhibition [27]: Active
- Tmax [28]: 0.5 h
- pIC50 [29]: 9.29
- MRT last at 24 h [30]: 1.24 h
- AUC(0-t) at 24 h [31]: 1410 ng·h/mL
- pKd [32]: 7.29
- inhibition [33]: Active
- Activity [34]: 11.9 mm3
- AUC(0-t) at 24 h [35]: 34200 ng·h/mL
- inhibition in vivo at 50 mg/kg [36]: 85.9%
